Measured values reported in ChEMBL document CHEMBL4145641, “Identification of Thiourea-Based Inhibitors of the B-Cell Lymphoma 6 BTB Domain via NMR-Based Fragment Screening and Computer-Aided Drug Design” (J Med Chem, 2018).

Key:
[1] = Solubility in aqueous solution containing 1% DMSO; type: physicochemical
OCI-Ly7 = test: Growth inhibition of human OCI-LY7 cells incubated for 48 hrs by cell-titer-blue dye based assay; type: functional; details: OCI-Ly7, 48 h
SUD4 = test: Growth inhibition of human SUDHL4 cells incubated for 48 hrs by cell-titer-blue dye based assay; type: functional; details: SU-DHL-4, 48 h
OCI-Ly1 = test: Growth inhibition of human OCI-LY1 cells incubated for 48 hrs by cell-titer-blue dye based assay; type: functional; details: OCI-Ly1, 48 h
[2] = Growth inhibition of human OCI-Ly1-B50 cells incubated for 48 hrs by cell-titer-blue dye based assay; type: functional
KARPAS-422 = test: Growth inhibition of human KARPAS422 cells incubated for 48 hrs by cell-titer-blue dye based assay; type: functional; details: KARPAS-422, 48 h
SU-DHL-6 = test: Growth inhibition of human SUDHL6 cells incubated for 48 hrs by cell-titer-blue dye based assay; type: functional; details: SU-DHL-6, 48 h
Toledo = test: Growth inhibition of human Toledo cells incubated for 48 hrs by cell-titer-blue dye based assay; type: functional
[3] = target: B-cell lymphoma 6 protein (Homo sapiens, UniProt P41182); test: Binding affinity to fluorescently labeled recombinant BCL6 BTB domain (unknown origin) expressed in Escherichia coli BL21 (DE3) incubated for 10 mins by microscale thermophoresis method

In the case of CCOC(=O)CNC(=O)Cn1cc(CN2CCN(C)CC2)c2ccc(NC(=S)NCCc3c[nH]c4ccccc34)cc21, the solubility [1] is reported as over 1000 µM.

In the case of CN1CCN(Cc2cn(CC(=O)N3CCOCC3)c3cc(NC(=S)NCCc4c[nH]c5ccccc45)ccc23)CC1, the solubility [1] is reported as over 1000 µM, the GI50 (OCI-Ly7) is reported as 193 µM and the GI50 (SUD4) is reported as over 500 µM. It also gave a GI50 (OCI-Ly1) of over 500 µM, a GI50 [2] of over 500 µM and a GI50 (KARPAS-422) of over 500 µM. The GI50 (SU-DHL-6) was over 500 µM and the GI50 (Toledo) was over 500 µM.

In the case of COC(=O)Cn1cc(CN2CCN(C)CC2)c2ccc(NC(=S)NCCc3c[nH]c4ccccc34)cc21, the GI50 (OCI-Ly7) is reported as over 500 µM, the GI50 (SUD4) is reported as over 500 µM and the GI50 (OCI-Ly1) is reported as over 500 µM. It also gave a GI50 [2] of over 500 µM, a GI50 (KARPAS-422) of over 500 µM and a GI50 (SU-DHL-6) of 100 µM. For the same compound, the GI50 (Toledo) was over 500 µM.

With CN1CCN(Cc2cn(CC(=O)N3CCCCC3)c3cc(NC(=S)NCCc4c[nH]c5ccccc45)ccc23)CC1 the solubility [1] was over 1000 µM, the GI50 (OCI-Ly7) was 33 µM and the GI50 (SUD4) was 103 µM. It also gave a GI50 (OCI-Ly1) of 100 µM, a GI50 [2] of over 500 µM and a GI50 (KARPAS-422) of over 500 µM. The GI50 (SU-DHL-6) was 60 µM and the GI50 (Toledo) was over 500 µM.

CC[C@H](C)[C@H](NC(=O)[C@H](CCC(=O)O)NC(=O)[C@H](Cc1cnc[nH]1)NC(=O)[C@H](NC(=O)[C@H](CO)NC(=O)[C@H](CCCNC(=N)N)NC(=O)CNC(=O)[C@H](C)NC(=O)[C@H](CCC(=O)O)NC(=O)[C@H](CCCCN)NC(=O)[C@@H](NC(=O)[C@@H](NC(=O)[C@H](C)NC(=O)[C@@H](NC(=O)[C@@H](N)CC(C)C)C(C)C)[C@@H](C)O)C(C)C)[C@@H](C)CC)C(=O)N1CCC[C@@H]1C(=O)N[C@@H](CCCNC(=N)N)C(=O)O gave a Kd [3] of 30 µM.

Compound CN1CCN(Cc2cn(CC(=O)NCC(=O)O)c3cc(NC(=S)NCCc4c[nH]c5ccccc45)ccc23)CC1 has a solubility [1] of over 1000 µM, a GI50 (OCI-Ly7) of over 500 µM and a GI50 (SUD4) of over 500 µM. The GI50 (OCI-Ly1) was over 500 µM, the GI50 [2] was over 500 µM and the GI50 (KARPAS-422) was over 500 µM. It also gave a GI50 (SU-DHL-6) of over 500 µM and a GI50 (Toledo) of over 500 µM.

With CC(C)NC(=O)Cn1cc(CN2CCN(C)CC2)c2ccc(NC(=S)NCCc3c[nH]c4ccccc34)cc21 the solubility [1] was over 1000 µM, the GI50 (OCI-Ly7) was over 500 µM and the GI50 (SUD4) was over 500 µM. For the same compound, the GI50 (OCI-Ly1) was over 500 µM, the GI50 [2] was over 500 µM and the GI50 (KARPAS-422) was over 500 µM. For the same compound, the GI50 (SU-DHL-6) was over 500 µM and the GI50 (Toledo) was over 500 µM.

With O=C(O)CNC(=O)Cn1ccc2ccc(NC(=S)NCCc3c[nH]c4ccccc34)cc21 the GI50 (OCI-Ly7) was over 500 µM, the GI50 (SUD4) was over 500 µM and the GI50 (OCI-Ly1) was over 500 µM. It also gave a GI50 [2] of over 500 µM, a GI50 (KARPAS-422) of over 500 µM and a GI50 (SU-DHL-6) of over 500 µM. The GI50 (Toledo) was over 500 µM.

CN1CCN(Cc2cn(CC(=O)N3CCN(C)CC3)c3cc(NC(=S)NCCc4c[nH]c5ccccc45)ccc23)CC1 showed a solubility [1] of over 1000 µM.

CCN(CC)C(=O)Cn1cc(CN2CCN(C)CC2)c2ccc(NC(=S)NCCc3c[nH]c4ccccc34)cc21 showed a solubility [1] of over 1000 µM.

For CC1CN(C(=O)Cn2cc(CN3CCN(C)CC3)c3ccc(NC(=S)NCCc4c[nH]c5ccccc45)cc32)CCO1 (racemic), the solubility [1] was over 1000 µM, the GI50 (OCI-Ly7) was 116 µM and the GI50 (SUD4) was over 500 µM. It also gave a GI50 (OCI-Ly1) of over 500 µM, a GI50 [2] of over 500 µM and a GI50 (KARPAS-422) of over 500 µM. It also gave a GI50 (SU-DHL-6) of over 500 µM and a GI50 (Toledo) of over 500 µM.
